Converted amounts (≈) assume the structure as drawn. “Also recorded” adds a separate entry of the source.
Experiments:
WiDr colon cancer cells = test: In vitro antitumor activity, WiDr colon; format: cell-based; conditions: Homo sapiens
Excerpt: (§1) 1) in vitro tumor cell viability assays using MTT and SRB dye reaction endpoints.
(§2) Sulforhodamine B (SRB) Assay for Adherent Tumor Cells
(§3) Sulforhodamine B (SRB) is a protein binding aminoxanthene dye with two sulfonic acid groups. (Lillie, R. D., H. J. Conn's Biological Stains, 9th Ed., Baltimore; Williams & Wilkins, 1977.) It quantitates whole cell protein content by the intensity of dye staining and relates this to the number of viable cells. […] The SRB assay is used for cells which normally adhere to surfaces (in this case plastic culture flasks or petri dishes) as part of their requirement for growth and division in vitro. The SRB assay is currently used by the National Cancer Institute in the anticancer drug screening program. (Skehan, et al., J Natl Cancer Inst 82:1107-1112, 1990; Rubinstein, et al., J Natl Cancer Inst 82:1113-1118, 1990.) Methodologic comparisons have shown that SRB results are linear for the number of tumor cells over a 100-fold range, and for protein content determined by a modified Lowry method or Standard Bradford (Bradford, M., Anal Biochem 72:248-254, 1976) methods. […] (Lillie, R. D., H. J. Conn's Biological Stains, 9th Ed., Baltimore; Williams & Wilkins, 1977.)
(§4) Cell cultures of 10^3 -10^7 cells growing in 96-well plastic microtiter plates are fixed with 50% trichloroacetic acid (TCA) for 30 minutes at 4° C. The cells are then stained with 0.4% (w/v) sulforhodamine B (SRB) dissolved in 1% acetic acid. Unbound dye is removed by 4 washes with 1% acetic acid, and protein-bound dye is extracted with 10 mM unbuffered Tris® base [tris(hydroxymethyl)aminomethane]. The optical density (OD) of this extracted solution is measured at […] in a microtiter plate ultraviolet absorbance detector. Cell viability is expressed as percent of control by dividing the optical densities and multiplying the result by 100.
(§5) Microculture Tetrazolium (MTT) Assay for Tumor Cells
(§6) Tumors are disaggregated into single cell suspensions using mechanical, hypoosmotic, and/or enzymatic (trypsin) methods. The cells are plated at a concentration of 3-5×10^4 per […] well into plastic 96-well plates. Growth medium containing 5-10% (vol/vol) heat-inactivated fetal bovine serum and penicillin/streptomycin (both […]) are added prior to incubation at 37° C. for 6 days. Afterwards the medium containing the drug is removed, the cells are centrifuged in fresh medium or phosphate-buffered saline (pH 7.4). A tetrazolium dye, […]-2,5-diphenyl tetrazolium (MTT), is then added. (Mossman, T., J Immunol 65:55-63, 1983.) This dye forms a colored formazan product upon activation by mitochondrial reductases in viable cells. Typically, the formazan product is solubilized in acid-propanol or DMSO. The intensity of the color is proportional to viable cell numbers and this is quantitated by spectrophotometric absorbance at 570 nm on a micro ELISA plate reader. The results are calibrated in % control absorbance from untreated tumor cells. (Alley, et al., Cancer Res 48:589-601, 1988.)
(§7) Table 3 gives the potencies of the new aziridine-1-carboxamides in a panel of human and murine tumor cells in culture. The tumor cell lines in this table are selected to represent a range of histological and growth phenotypes. Their characteristics are described below.
2.1 WiDr: The adenocarcinoma cell line WiDr was originally isolated by Noguchi, et al. from a primary colon tumor specimen from a patient with advanced colon carcinoma. (Noguchi, et al, In Vitro 35(6):401-407, 1979.) The WiDr MITOX cell line was developed for mitoxantrone resistance by growth in serially elevated concentration of mitoxantrone. […] (Dalton, et al., Cancer Res 48:1882-1888, 1988.)

[1] = tested on: OVCAR-3 ovarian carcinoma cells; test: In vitro antitumor activity, OVCAR-3 ovarian; format: cell-based, human; conditions: Homo sapiens, OVCAR-3; OVCAR3 ovarian; read-out: IC50
Excerpt: as §1, §2, §3, §4, §5, §6, §7
5.0 Human OVCAR-3 Ovarian Carcinoma was originally isolated by Hamilton, et al. Experimental model systems of ovarian cancer; applications to the design and evaluation of new treatment approaches. Seminar in Onocology, 11:285-298, 1984, from a patient with progressive adenocarcinoma of the ovary. This patient had relapsed after receiving a combination chemotherapy regimen containing cyclophosphamide, doxorubicin and cisplatin. […] It is also one of the standard human tumor cell lines used for screening new anticancer agents at the NCI. (Alley, et al., Cancer Res 48:589-601, 1988.)

8226/S myeloma cells = test: MTT growth inhibition, parental 8226 myeloma cells; format: cell-based, human; conditions: for IC50: Homo sapiens, Table 5, Sensitive (parental) 8226, read-out: IC50; for Potency relative to imexon: myeloma cells
Procedure, shortened: (§8)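 Parental 8226/S and imexon-resistant 8226/I-R myeloma cells (selected with imexon up to 3.25 mg/mL) were exposed to drug continuously for 10 days at 37 °C. Viability was measured by MTT absorbance at 570 nm relative to untreated controls. IC50 was taken as the concentration giving 50% growth inhibition, from at least 2 assays.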

8226/I-R myeloma cells = test: MTT growth inhibition, imexon-resistant 8226 myeloma cells; format: cell-based, human; conditions: for Cross-resistance with imexon: 8226 imexon-resistant vs parental; for IC50: Homo sapiens, imexon-resistant 8226, read-out: IC50; for IC50 / Fold Resistance of IC50 R/IC50 's: Table 5; for Fold Resistance of IC50 R/IC50 's: imexon-resistant vs sensitive 8226
Procedure, shortened: as §8

Row | Structure (SMILES) | IC50 (WiDr colon cancer cells) | IC50 [1] | IC50 (8226/S myeloma cells) | Enhanced potency: decrease in IC50 against myeloma cell growth (8226/S myeloma cells; compared with imexon) | Potency relative to imexon (8226/S myeloma cells) | Cross-resistance with imexon (8226/I-R myeloma cells) | IC50 (8226/I-R myeloma cells) | Fold Resistance of IC50 R/IC50 's (8226/I-R myeloma cells)
1 | N#CC1CN1C(=O)Nc1ccc(F)cc1 (stereo not drawn) [AMP 415, 2-Cyanoaziridine-1-[N-(4-fluorophenyl)]carboxamide] | 0.4 µg/mL (≈ 1.95 µM) | 1.2 µg/mL | 1 µg/mL (≈ 4.87 µM) | > 40% | roughly equal potency to imexon | lack of significant (>50% IC50 change) cross-resistance with imexon; also recorded: no significant cross resistance | 1.2 µg/mL (≈ 5.85 µM) | 1.2
2 | N#CC1CN1C(=O)Nc1ccc(C(F)(F)F)cc1 (stereo not drawn) [AMP 416, 2-Cyanoaziridine-1-[N-(4-trifluorophenyl)]carboxamide] | 0.3 µg/mL (≈ 1.18 µM) | 1.5 µg/mL | 2.1 µg/mL (≈ 8.23 µM) | – | roughly equal potency to imexon | lack of significant (>50% IC50 change) cross-resistance with imexon; also recorded: no significant cross resistance | 2 µg/mL (≈ 7.84 µM) | 0.95

Reference: patent US6297230A, “Cyanoaziridines for treating cancer” (priority 2000, dated 2001)
